Values joined by “and” are separate entries in the source; they are usually repeats but may differ in a detail not shown here. Equal entries are not always repeated. Toxic doses and inconclusive results are not listed. How the source made its calls: active means survival T/C of 150% or more; inactive means T/C below 125% in these data.
Experiments:
[1] = tested on: BDF1 mice, P388 leukemia ip; experiment: NCI In Vivo Anticancer Drug Screen. Data for tumor model P388 Leukemia (intraperitoneal) in B6D2F1 (BDF1) mice; conditions: endpoint: mean survival time, schedule: Q01DX009 (ip), higher = longer survival
How it was run: (§1)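 Transplantable tumour in mice; compound vs vehicle dosing; survival scored; ratio of treated to control reported.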

[2] = tested on: BDF1 mice, P388 leukemia ip, median survival T/C; experiment: as above; conditions: endpoint: median survival time, higher = longer survival
How it was run: as §1

Measured: T/C

CN(C)Cc1ccc(C(C)(C)C)cc1
inactive: [1]; dose: 3.12 mg/kg/injection, vehicle: water 108 % of control | [1]; dose: 6.25 mg/kg/injection, vehicle: water 100 % of control | [1]; dose: 12.5 mg/kg/injection, vehicle: water 102 % of control | [1]; dose: 25.0 mg/kg/injection, vehicle: water 96 % of control | [1]; dose: 100.0 mg/kg/injection, vehicle: water 95 % of control | [2]; dose: 6.25 mg/kg/injection, schedule: Q04DX003 (ip), vehicle: water 98 % of control | [2]; dose: 12.5 mg/kg/injection, schedule: Q04DX003 (ip), vehicle: water 112 % of control | [2]; dose: 25.0 mg/kg/injection, schedule: Q04DX003 (ip), vehicle: water 106 % of control | [2]; dose: 50.0 mg/kg/injection, schedule: Q04DX003 (ip), vehicle: water 106 % of control | [2]; dose: 100.0 mg/kg/injection, schedule: Q04DX003 (ip), vehicle: water 99 % of control and 100 % of control

CNC(C)(C)C(SSSC(c1ccc(Cl)cc1)C(C)(C)NC)c1ccc(Cl)cc1 (configuration not stated)
inactive: [1]; dose: 6.25 mg/kg/injection, vehicle: saline with Tween-80 95 % of control | [1]; dose: 12.5 mg/kg/injection, vehicle: saline with Tween-80 114 % of control | [1]; dose: 25.0 mg/kg/injection, vehicle: saline with Tween-80 103 % of control | [2]; dose: 12.5 mg/kg/injection, schedule: Q04DX003 (ip), vehicle: saline with Tween-80 101 % of control | [2]; dose: 25.0 mg/kg/injection, schedule: Q01DX009 (ip), vehicle: saline with Tween-80 102 % of control | [2]; dose: 25.0 mg/kg/injection, schedule: Q04DX003 (ip), vehicle: saline with Tween-80 100 % of control | [2]; dose: 50.0 mg/kg/injection, schedule: Q01DX009 (ip), vehicle: saline with Tween-80 94 % of control | [2]; dose: 50.0 mg/kg/injection, schedule: Q04DX003 (ip), vehicle: saline with Tween-80 95 % of control

CC(CCC(=O)NC12CC3CC(CC(C3)C1)C2)C1CCC2C3C(OC=O)CC4CC(OC=O)CCC4(C)C3CC(OC=O)C12C (configuration not stated)
inactive: [2]; dose: 12.5 mg/kg/injection, schedule: Q04DX002 (ip), vehicle: saline with Tween-80 98 % of control | [2]; dose: 25.0 mg/kg/injection, schedule: Q04DX002 (ip), vehicle: saline with Tween-80 100 % of control | [2]; dose: 50.0 mg/kg/injection, schedule: Q04DX002 (ip), vehicle: saline with Tween-80 100 % of control | [2]; dose: 200.0 mg/kg/injection, schedule: Q04DX002 (ip), vehicle: saline with Tween-80 88 % of control | [2]; dose: 400.0 mg/kg/injection, schedule: Q04DX002 (ip), vehicle: saline with Tween-80 98 % of control

COc1cc2c(cc1I)-c1c(cc(OC)c(OC)c1OC)CC[C@@H]2NC(C)=O
inactive: [2]; dose: 100.0 mg/kg/injection, schedule: Q04DX003 (ip), vehicle: saline sonified 100 % of control | [2]; dose: 200.0 mg/kg/injection, schedule: Q04DX003 (ip), vehicle: saline sonified 108 % of control | [2]; dose: 400.0 mg/kg/injection, schedule: Q04DX003 (ip), vehicle: saline sonified 100 % of control

NC(=S)N/N=C/C=C/c1ccccc1
inactive: [2]; dose: 100.0 mg/kg/injection, schedule: Q04DX002 (ip), vehicle: Klucel (hydroxypropylcellulose) (HPC) 96 % of control

From PubChem BioAssay AID328 (DTP/NCI, 2004)
